Like-named read-outs stand apart in the source and are kept apart here.
What was measured:
M4 muscarinic receptor = molecular target: T1, M4 muscarinic receptor (Homo sapiens, UniProt P08173); test: Functional mobilization of intracellular calcium (FLIPR) in M4-CHO cells; format: cell-based
T1 construct: expressed in transfected cells; host or cells: CHO (M4-CHO)
T1 sequence (P08173 1-479): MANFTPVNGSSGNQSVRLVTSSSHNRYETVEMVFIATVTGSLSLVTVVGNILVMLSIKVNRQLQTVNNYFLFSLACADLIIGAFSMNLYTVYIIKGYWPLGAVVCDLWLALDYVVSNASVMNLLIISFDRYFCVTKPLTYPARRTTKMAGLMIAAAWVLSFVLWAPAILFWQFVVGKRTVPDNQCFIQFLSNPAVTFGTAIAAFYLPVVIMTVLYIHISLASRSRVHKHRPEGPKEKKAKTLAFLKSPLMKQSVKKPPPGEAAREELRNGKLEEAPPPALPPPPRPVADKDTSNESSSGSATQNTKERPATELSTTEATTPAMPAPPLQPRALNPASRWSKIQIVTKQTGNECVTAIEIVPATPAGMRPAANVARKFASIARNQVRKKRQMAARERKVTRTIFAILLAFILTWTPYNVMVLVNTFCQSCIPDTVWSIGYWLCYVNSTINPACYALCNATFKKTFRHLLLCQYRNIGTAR
How it was run: (§1)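 FLIPR Ca2+ read, ex 488/em 540 nm, 60 s. Recombinant CHO lines (M1 or M4), dye-loaded Fluo-3 AM 60-90 min at 37° C, probenecid 1 mM, pH 7.4. Agonist: compound alone; inhibition: 15 min compound pre-incubation, then carbachol at EC80 for that subtype.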

M1 muscarinic receptor = molecular target: T2, M1 muscarinic receptor (Homo sapiens, UniProt P11229); test: Functional mobilization of intracellular calcium (FLIPR) in M1-CHO cells; format: cell-based
T2 construct: expressed in transfected cells; host or cells: CHO (M1-CHO)
T2 sequence (P11229 1-460): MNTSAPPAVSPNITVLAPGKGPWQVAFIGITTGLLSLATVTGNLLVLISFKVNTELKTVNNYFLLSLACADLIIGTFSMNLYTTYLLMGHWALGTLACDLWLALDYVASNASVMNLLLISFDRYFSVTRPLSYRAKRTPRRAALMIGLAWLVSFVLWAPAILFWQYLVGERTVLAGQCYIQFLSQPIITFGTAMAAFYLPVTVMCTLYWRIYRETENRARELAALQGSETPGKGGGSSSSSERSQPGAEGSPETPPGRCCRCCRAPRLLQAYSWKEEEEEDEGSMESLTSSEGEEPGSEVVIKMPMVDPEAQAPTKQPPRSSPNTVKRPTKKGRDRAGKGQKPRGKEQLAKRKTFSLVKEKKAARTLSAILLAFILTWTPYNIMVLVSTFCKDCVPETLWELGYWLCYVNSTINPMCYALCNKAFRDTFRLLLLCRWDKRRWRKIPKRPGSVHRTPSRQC
How it was run: as §1

[1] = Table 4, 100% efficacy is the maximum response obtained with the Carbachol control
[2] = Table 4, modulating M4 receptor
[3] = Table 4, modulating M1 receptor
[4] = Table 4, M4 receptor, calcium mobilization (FLIPR)
[5] = Table 4, M1 receptor, calcium mobilization (FLIPR)
[6] = M4 receptor, calcium mobilization
[7] = M4 receptor, calcium mobilization, read-out: M4 Efficacy
[8] = M1 receptor, calcium mobilization
[9] = M1 receptor, calcium mobilization, read-out: M1 Efficacy
[10] = 100% efficacy is the maximum response obtained with the Carbachol control, Table 5
[11] = M4-CHO cells, calcium mobilization (FLIPR)
[12] = M4-CHO cells, calcium mobilization (FLIPR), read-out: M4 Efficacy
[13] = M1-CHO cells, calcium mobilization (FLIPR)
[14] = M1-CHO cells, calcium mobilization (FLIPR), read-out: M1 Efficacy

SMILES | Emax (M4 muscarinic receptor; [1]) [%] | M4 Activity (M4 muscarinic receptor; [2]) | Emax (M1 muscarinic receptor; [1]) [%] | M1 Activity (M1 muscarinic receptor; [3]) | further results
CN(C)C(=O)N[C@H]1CCC2(CCN([C@@H]3C[C@@H]4CC[C@H]3C4)CC2)c2ccccc21 [compound 789] | 25 to 100 | x (activity was measured to be greater than 5.0 μM) | 25 to 100 | x (activity was measured to be greater than 5.0 μM) | 
CCCC#CCOC(=O)N1CCC(N2CCC3(CC2)CN(C(=O)N(C)C)c2ccc(F)cc23)CC1 [compound 456] | 25 to 100 | xxx (activity was measured to be less than 2.0 μM) | 25 to 100 | xxx (activity was measured to be less than 2.0 μM) | 
O=C(O)C1CC2(CCN(C3CCCC3)CC2)c2ccccc21 (stereo not shown) [compound 542] | < 25 | x (activity was measured to be greater than 5.0 μM) | < 25 | x (activity was measured to be greater than 5.0 μM) | 
COCCOC(=O)N1CC[C@H](CN2CCC3(CC2)CN(C(C)=O)c2ccccc23)C1 [compound 681] | < 25 | x (activity was measured to be greater than 5.0 μM) | 25 to 100 | x (activity was measured to be greater than 5.0 μM) | 
CCOC(=O)N1CCCC(N2CCCC3(CC2)CN(C(C)=O)c2ccc(F)cc23)CC1 (stereo not shown) [compound 986] | 25 to 100 |  | 25 to 100 |  | M4 Activity (M4 muscarinic receptor; [4]): xxx (activity was measured to be less than 2.0 μM); M1 Activity (M1 muscarinic receptor; [5]): xxx (activity was measured to be less than 2.0 μM)
CCOC(=O)N1C2CCC1CC(N1CCC3(CC1)CC(NC(C)=O)c1ccccc13)C2 (stereo not shown) [compound 318] |  |  |  |  | M4 Activity (M4 muscarinic receptor; [6]): xxx (activity was measured to be less than 0.1 μM); Emax (M4 muscarinic receptor; [7]): > 85%; M1 Activity (M1 muscarinic receptor; [8]): xxx (activity was measured to be less than 0.1 μM); Emax (M1 muscarinic receptor; [9]): 65 to 85%
O=C(N[C@H]1CC2(CCN(CC3CCCCC3)CC2)c2ccccc21)C1CC1 [compound 955] | 25 to 100 |  | 25 to 100 |  | M4 Activity (M4 muscarinic receptor; [4]): xxx (activity was measured to be less than 2.0 μM); M1 Activity (M1 muscarinic receptor; [5]): xxx (activity was measured to be less than 2.0 μM)
CN(C)C(=O)N1CC2(CCN(C3CCN(c4ccccc4F)CC3)CC2)c2cc(F)ccc21 [compound 1024] |  |  |  |  | Emax (M4 muscarinic receptor; [10]): < 25%; EC50 (M4 muscarinic receptor; CHO cells expressing M4, calcium mobilization, Table 5): 2000 to 10000 nM; Emax (M1 muscarinic receptor; [10]): 25 to 100%; EC50 (M1 muscarinic receptor; CHO cells expressing M1, calcium mobilization, Table 5): 2000 to 10000 nM
CC(=O)NC1CC2(CCN(C[C@H]3C[C@H]4C=C[C@H]3C4)CC2)c2ccccc21 (stereo partly shown) [compound 392] |  |  |  |  | EC50 (M4 muscarinic receptor; [11]): > 1000 nM; Emax (M4 muscarinic receptor; [12]): < 65%; EC50 (M1 muscarinic receptor; [13]): < 100 nM; Emax (M1 muscarinic receptor; [14]): 65 to 85%
CC(=O)N[C@H]1CCC2(CCN([C@H]3CC4CC[C@H](C4)C3)CC2)c2ccccc21 [compound 861] | 25 to 100 |  | 25 to 100 |  | M4 Activity (M4 muscarinic receptor; [4]): xxx (activity was measured to be less than 2.0 μM); M1 Activity (M1 muscarinic receptor; [5]): xxx (activity was measured to be less than 2.0 μM)
CCOC(=O)N1CCC(N2CCC3(CC2)CN(CC(=O)N(C)C)c2ccc(F)cc23)CC1 [compound 800] | 25 to 100 | xxx (activity was measured to be less than 2.0 μM) | 25 to 100 | xxx (activity was measured to be less than 2.0 μM) | 
CCOC(=O)N1CCC(N2CCC3(CC2)CN(C(C)=O)c2c(-c4cccc(F)c4)cccc23)CC1 [compound 499] | < 25 | x (activity was measured to be greater than 5.0 μM) | 25 to 100 | x (activity was measured to be greater than 5.0 μM) | 
CC#CCOC(=O)N1CCC(N2CCC3(CC2)CN(C(=O)N(C)C)c2ccc(F)cc23)CC1 [compound 353] |  |  |  |  | M4 Activity (M4 muscarinic receptor; [6]): x (activity was measured to be greater than 1.0 μM); Emax (M4 muscarinic receptor; [7]): 65 to 85%; M1 Activity (M1 muscarinic receptor; [8]): xxx (activity was measured to be less than 0.1 μM); Emax (M1 muscarinic receptor; [9]): > 85%
CCCCc1cncc(N2CCC(N3CCC4(CC3)CN(C(C)=O)c3ccccc34)CC2)n1 [compound 477] | < 25 | x (activity was measured to be greater than 5.0 μM) | < 25 | x (activity was measured to be greater than 5.0 μM) | 
CC(=O)N1CC2(CCN(C3CCCC(C(F)(F)F)C3)CC2)c2cc(F)ccc21 (stereo not shown) [compound 425] |  |  |  |  | EC50 (M4 muscarinic receptor; [11]): > 1000 nM; Emax (M4 muscarinic receptor; [12]): < 65%; EC50 (M1 muscarinic receptor; [13]): > 1000 nM; Emax (M1 muscarinic receptor; [14]): < 65%
CCC1CCC(N2CCC3(CC2)CN(C(C)=O)c2ccc(F)cc23)CC1 (stereo not shown) [compound 27] |  |  |  |  | M4 Activity (M4 muscarinic receptor; [6]): xxx (activity was measured to be less than 0.1 μM); Emax (M4 muscarinic receptor; [7]): 65 to 85%; M1 Activity (M1 muscarinic receptor; [8]): xxx (activity was measured to be less than 0.1 μM); Emax (M1 muscarinic receptor; [9]): 65 to 85%
Cc1ccc2c(c1)C(=O)CC21CCN(C2CCCCCC2)CC1 [compound 863] | 25 to 100 |  | 25 to 100 |  | M4 Activity (M4 muscarinic receptor; [4]): xx (activity was measured to be between 2.0 μM and 5.0 μM); M1 Activity (M1 muscarinic receptor; [5]): x (activity was measured to be greater than 5.0 μM)
CC(=O)N1CC2(CCN(C3CCN(C(=O)OC(C)C)CC3)CC2)c2cc(F)ccc21 [compound 269] |  |  |  |  | M4 Activity (M4 muscarinic receptor; [6]): xxx (activity was measured to be less than 0.1 μM); Emax (M4 muscarinic receptor; [7]): > 85%; M1 Activity (M1 muscarinic receptor; [8]): xxx (activity was measured to be less than 0.1 μM); Emax (M1 muscarinic receptor; [9]): 65 to 85%
CC(=O)N1CC2(CCN(C3CCN(c4cncc(C5CC5)n4)CC3)CC2)c2ccccc21 [compound 611] | < 25 | x (activity was measured to be greater than 5.0 μM) | 25 to 100 | xxx (activity was measured to be less than 2.0 μM) | 
CCCOC(=O)N1C2CCC1CC(N1CCC3(CC1)CN(C(=O)C1CC1)c1ccc(F)cc13)C2 (stereo not shown) [compound 389] |  |  |  |  | EC50 (M4 muscarinic receptor; [11]): > 1000 nM; Emax (M4 muscarinic receptor; [12]): < 65%; EC50 (M1 muscarinic receptor; [13]): 100 to 1000 nM; Emax (M1 muscarinic receptor; [14]): 65 to 85%
CCc1cncc(N2CCC(N3CCC4(CC3)CN(C(C)=O)c3ccccc34)CC2)n1 [compound 822] | 25 to 100 |  | 25 to 100 |  | M4 Activity (M4 muscarinic receptor; [4]): xxx (activity was measured to be less than 2.0 μM); M1 Activity (M1 muscarinic receptor; [5]): xxx (activity was measured to be less than 2.0 μM)
COc1cc2c(cc1OC)C1(CCN(C3C4CC5CC(C4)CC3C5)CC1)C[C@@H]2NC(C)=O (stereo partly shown) [compound 546] | 25 to 100 | x (activity was measured to be greater than 5.0 μM) | 25 to 100 | x (activity was measured to be greater than 5.0 μM) | 
